Results reported in patent US20090286745A1, “INHIBITION OF ALPHA-SYNUCLEIN AGGREGATION” (Zapaloid Limited, priority 2006, published 2009).

Molecular target: α-synuclein (Homo sapiens, UniProt P37840)
Experiment: Kinetic thioflavin T aggregation assay of ASYN in TBS
Assay type: biochemical
Conditions: Table 4 interactomer peptides, 50 μM ASYN, 100 μM inhibitor, 37 C, 48 hours, sigmoidal fit
Experimental: (§1) Kinetic ThT assays were performed by adding ThT directly to the sample at time=0. A 2.5 mM ThT stock solution was made up in the buffer that was used in the aggregation experiment, filtered through a […] Millex GV filter and diluted to 62.5 μM by adding 5 μl to final sample volume of 200 μl in a 96-well polypropylene plate. The increase in fluorescence over time as a result of amyloid formation was measured in a Biotek Synergy HT plate reader at 37° C. with shaking. Cut off filters were used for exitation at 440/30 nm and emission at 485/20 nm. Readings were every 10 minutes with shaking for 500 seconds before each reading.
Aggregation assays were carried out with 50 μM ASYN and 100 μM inhibitor with 50 mM tris and 150 mM NaCl and 20 μM Thioflavin T. The reaction volume was 200 μL. Each reaction was set up in a 96 well polypropylene plate with ASYN only and buffer only controls. The reactions were incubated at 37 C with shaking for 48 hours and aggregation was monitored by reading thioflavin T fluorescence as described above.
The aggregation inhibition properties of ZP-0154 and ZP-0155 were tested in kinetic ThT assays in TBS as described above.
All peptides were tested for inhibition of ASYN aggregation in TBS as described above and the kinetic traces were fit using Zyentiafit software which fits the data to a Sigmoidal function f(x)=k+A/(1+exp(−b(t−t0))) from which the lag time, rate of aggregation and total change in ThT fluorescence may be calculated.
A kinetic thioflavin T assay to measure aggregation was set up with 50 uM α-synuclein in TBS and a molar ratio of 1:2 of α-synuclein:inhibitor). Reactions were incubated for 48 hours at 37° C. with shaking and thioflavin T fluorescence was measured every 10 minutes. The kinetic traces were fit using Zyentiafit software which fits the data to a Sigmoidal function f(x)=k+A/(1+exp(−b(t−t0))) from which the lag time, rate of aggregation and total change in ThT fluorescence may be calculated.

Substance	% decrease in ThT fluorescence	% decrease in rate of aggregation	% increase in Lag phase
Ac-hhtivv-NH2 [ZP-0175]	21.9%	16.8%	89.7%
NH3-qykvli-NH2 [ZP-0222]	42.3%	34.3%	7.7%
Ac-hpviva-NH2 [ZP-0164]	3.7%	−2.3%	43.0%
Ac-hhtvva-NH2 [ZP-0180]	19.8%	18.4%	30.3%
NH3-qysvlt-NH2 [ZP-0230]	10.9%	15.9%	32.4%
Ac-hhtevy-NH2 [ZP-0193]	8.7%	−15.8%	31.4%
Ac-hhttvy-NH2 [ZP-0194]	11.6%	7.7%	38.8%
Ac-hhvlva-NH2 [ZP-0160]	8.8%	10.5%	36.5%
NH3-qysvlv-NH2 [ZP-0229]	17.8%	24.3%	33.5%
Ac-hhtivk-NH2 [ZP-0179]	0.6%	−0.6%	30.4%
Ac-hhvkva-NH2 [ZP-0161]	−5.9%	2.3%	19.7%
Ac-hhvivy-NH2 [ZP-0171]	13.9%	13.2%	43.6%
NH3-qysvli-NH2 [ZP-0215]	27.6%	17.5%	3.1%
Ac-hhvivw-NH2 [ZP-0172]	−1.7%	6.9%	28.1%
Ac-hhvvva-NH2 [ZP-0159]	19.8%	18.6%	36.6%
NH3-pysvli-NH2 [ZP-0228]	40.8%	46.2%	38.2%

Substance	% decrease in ThT fluorescence	% decrease in rate of aggregation	% increase in Lag phase
Ac-hhvivt-NH2 [ZP-0170]	24.5%	29.3%	29.4%
Ac-qypvli-NH2 [ZP-0206]	3.3%	8.4%	25.9%
Ac-rysvli-NH2 [ZP-0212]	51.1%	44.9%	−14.4%
Ac-hhtlvv-NH2 [ZP-0186]	30.7%	29.7%	16.1%
Ac-hhveva-NH2 [ZP-0162]	6.3%	6.6%	33.4%
Ac-hhtlva-NH2 [ZP-0181]	22.8%	−1.2%	29.4%
Ac-hhvivp-NH2 [ZP-0168]	−8.6%	−5.4%	29.8%
Ac-qpsvli-NH2 [ZP-0207]	5.5%	3.6%	29.7%
NH3-qytvli-NH2 [ZP-0221]	24.7%	22.8%	−22.4%
Ac-drysvli-NH2 [ZP-0214]	20.4%	4.8%	−12.6%
Ac-qysvpi-NH2 [ZP-0204]	1.4%	−5.6%	23.6%
Ac-qyspli-NH2 [ZP-0205]	16.6%	−11.9%	30.6%
Ac-ekysvli-NH2 [ZP-0213]	25.6%	12.9%	29.4%
Ac-hhviva-NH2 [ZP-0158]	15.1%	18.4%	32.5%
Ac-hhvivv-NH2 [ZP-0169]	−0.5%	−13.3%	26.1%
Ac-qykvli-NH2 [ZP-0202]	53.5%	54.5%	−28.8%

Same assay, conditions: Table 5 structure stabilising peptides, 50 uM α-synuclein, 1:2 α-synuclein:inhibitor, 48 hours, 37° C., relative to α-synuclein only

Substance	% decrease in ThT fluorescence	% decrease in rate of aggregation	% increase in Lag phase
Ac-rdr-NH2 [ZP-0240]	18.5%	−0.6%	23.4%
Ac-kgegk-NH2 [ZP-0231]	4.3%	2.7%	11.2%
Ac-egkgegk-NH2 [ZP-0241]	6.1%	10.9%	16.6%
Ac-rgdgd-NH2 [ZP-0247]	12.2%	6.7%	10.7%

Same assay, conditions: structure stabilising peptides, 48 hours

Substance	endpoint thioflavin T fluorescence (in words)
Ac-rdr-NH2 [ZP-0240]	significant decrease

Same assay, conditions: timeframe of the assay 48 h, 50 μM ASYN, 100 μM inhibitor

Substance	increase in ThT signal compared to ASYN only
NMP-NMP-NMP-kvfgtaa-NH2 [ZP-0155]	No significant increase
NMP-NMP-NMP-NMP-kvfgtaa-NH2 [ZP-0154]	No significant increase

Molecular target: ASYN (Homo sapiens, UniProt P37840)
Experiment: Kinetic ThT aggregation assay in 25 mM Tris-Cl pH 7.4 with 100 mg/ml PEG 3350
Assay type: biochemical
Conditions: Tris-Cl pH 7.4; 48 hours; average over the named inhibitors
Experimental: as §1
For compounds ZP-0089 to ZP-0094, a kinetic ThT experiment was performed in 25 mM Tris-Cl at 37° C. to test the inhibition properties of ZP-0089 to ZP-0094 in Tris-Cl pH 7.4. Each 200 μl sample on the 96 well-plate contained 50 μM ASYN, 100 μM inhibitor and 100 mg/ml PEG along with buffer only and ASYN only controls. Samples were measured in triplicate. ThT fluorescence over time was monitored for 48 hours.

Substance	decrease in the endpoint ThT reading
NH2-sgvylvg-COOH [ZP-0092]	18±2%
NH2-sgvylvg-NH2 [ZP-0094]	18±2%
Ac-sgvylvg-COOH [ZP-0091]	18±2%
